One may read the pIC50 as −log10 of the IC50, conventionally taken in molar units.

From patent publication US12384753B2, “17-beta-hydroxysteroid dehydrogenase type 13 inhibitors and methods of use thereof” (Enanta Pharmaceuticals, Inc., priority 2021, dated 2025) come the findings set out here.

pIC50: −log10 of the molar value.

Recombinant human HSD17B13, sequence (Q7Z5P4 20-300): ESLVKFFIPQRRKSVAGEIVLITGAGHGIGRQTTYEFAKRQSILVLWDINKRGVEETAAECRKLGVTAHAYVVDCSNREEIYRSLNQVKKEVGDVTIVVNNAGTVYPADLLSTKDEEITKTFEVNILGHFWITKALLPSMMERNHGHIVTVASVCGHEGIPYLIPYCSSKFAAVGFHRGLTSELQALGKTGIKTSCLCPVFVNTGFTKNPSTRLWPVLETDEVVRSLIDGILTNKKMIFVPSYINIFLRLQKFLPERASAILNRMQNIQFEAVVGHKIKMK

This experiment deals with Recombinant human HSD17B13 (Homo sapiens (Human), UniProt Q7Z5P4). Put plainly: HSD17B13 rapid-fire mass spectrometry assay (RF/MS assay). Format: biochemical. As to conditions: inhibition of HSD17B13; LTB4 10 μM, NAD+ 0.5 mM, RT 3 h; IC50 ranges A-E. An excerpt:
HSD17B13 rapid-fire mass spectrometry assay (RF/MS assay). Recombinant human HSD17B13 was expressed and purified from sf9 cells at Charles River Labs (Saffron Walden, UK). Leukotriene B4 (Catalog #71160-24-2) and 12-oxoleukotriene B4 (Catalog #20140) were purchased from Cayman Chemicals (Ann Arbor, Michigan.). NAD+ (Catalog #N8285), BSA (Catalog #A7030), DMSO (Catalog #D2650), and Tween-20 (Catalog #11332465001) were purchased from Sigma (St. Louis, MO). Formic acid (Catalog #28905) was from ThermoFisher Scientific and 384 deep well PP microplates (Catalog #784261) were from Greiner Bio-One. In a typical IC50 assay performed in a 384w PP microplate, test compounds (0-100 μM) were incubated with HSD17B13 (80 nM), LTB4 (10 μM), and NAD^+ (0.5 mM) in 10 μL assay buffer (20 mM Tris (pH 7.5), BSA (0.005%), and Tween-20 (0.01%)) at RT for 3 h. The assays were quenched by adding 20 μL of 0.15% aqueous formic acid and the plates were frozen at −80° C. RF/MS analysis was performed at PureHoney Technologies (Billerica, MA) on a RapidFire RF300 system (Agilent Technologies, Inc.) coupled to an API 4000 triple quadrupole mass spectrometer (Sciex) equipped with Agilent RapidFire cartridge type A (C4). The mobile phase was 0.09% formic acid and 0.01% trifluoracetic acid in water (Buffer A) and 0.09% formic acid and 0.01% trifluoracetic acid in 80% aqueous acetonitrile (Buffer B). The RapidFire method conditions were the following: 250 ms aspirate, 3000 ms load/desalt, 4000 ms elute, and 500 ms re-equilibrate. RF-MS/MS was performed in negative polarity (−4500 V), the source temperature was 650° C., and gas 1 and gas 2 settings for nitrogen were set to 50. The curtain gas and collision gas were also nitrogen and were set to 20 and 12, respectively. Leukotriene B4 (335.3) and 12-oxoLeukotriene B4 (333.3) SRM transitions were optimized with Discovery Quant software and extracted ion counts for these analytes were determined.
Data Analysis. HSD17B13 enzyme activity was measured as percent conversion of extracted ion counts and normalized to high and low controls to determine percent residual activity at various concentrations of test compounds. Data were fitted to normalized activity (variable slope) versus concentration fit in GraphPad Prism 7 to determine IC50. All experiments were run in duplicates.
By using above method, the inhibition of HSD17B13 was evaluated for the compounds of Formula (I). IC50 ranges are as follows: A=IC50<0.100 μM; B=0.100 μM<IC50<0.500 μM; C=0.500 μM<IC50<1 μM; D=1 μM<IC50<100 μM; E=IC50>100 μM
For `COc1cc(C(=O)O)ccc1NS(=O)(=O)c1csc(C2CCC(c3ccccc3)CC2)n1` (single isomer, unassigned) [Example 369], the pIC50 was 6.30 to 7.00. `CCOc1cc(C(=O)O)ccc1NS(=O)(=O)c1cnc(-c2ccc(F)cc2)s1` [Example 1]: the pIC50 was 6.00 to 6.30.

Consider `O=C(O)c1ccc(NS(=O)(=O)c2ccc(F)cc2)cc1` [Example 3], for which the pIC50 was 4.00 to 6.00.

`O=C(O)c1ccc(NS(=O)(=O)c2ccc3ccccc3c2)cc1` [Example 4]: the negative-log IC50 (pIC50) was 4.00 to 6.00. In the case of `COc1cc2c(cc1C(=O)O)CN(S(=O)(=O)c1ccc(F)cc1)CC2` [Example 5, 2-((4-fluorophenyl)sulfonyl)-6-methoxy-1,2,3,4-tetrahydroisoquinoline-7-carboxylic acid], the negative-log IC50 (pIC50) is under 4.00. Next, `O=C(O)c1cc2c(cc1F)CCN(S(=O)(=O)c1ccc(F)cc1)C2` [Example 6, 6-fluoro-2-((4-fluorophenyl)sulfonyl)-1,2,3,4-tetrahydroisoquinoline-7-carboxylic acid]: 4.00 to 6.00; `O=C(O)c1ccc2c(c1)CCCN2S(=O)(=O)c1ccc(F)cc1` [Example 7]: 4.00 to 6.00.

Consider `COc1nc2c(cc1C(=O)O)CN(S(=O)(=O)c1ccc(F)cc1)CC2` [Example 8, 6-((4-fluorophenyl)sulfonyl)-2-methoxy-5,6,7,8-tetrahydro-1,6-naphthyridine-3-carboxylic acid], for which the negative-log IC50 (pIC50) is under 4.00. For the compound `O=C(O)c1cc2c(cc1F)OCCN2S(=O)(=O)c1ccc(F)cc1` [Example 9, 7-fluoro-4-((4-fluorophenyl)sulfonyl)-3,4-dihydro-2H-benzo[b][1,4]oxazine-6-carboxylic acid], the negative logarithm of the IC50 (pIC50) was 4.00 to 6.00. As for `O=C(O)c1ccc2c(c1)N(S(=O)(=O)c1ccc(F)cc1)CC2` [Example 10], the pIC50 is 4.00 to 6.00. With `O=C(O)c1ccc2c(c1)CN(S(=O)(=O)c1ccc(F)cc1)C2` [Example 11] the figure was under 4.00.

For the compound `O=C(O)c1ccc2c(c1)CCN2S(=O)(=O)c1ccc(F)cc1` [Example 12], the pIC50 was under 4.00. Consider `O=C(O)c1ccc2c(c1)CCN2S(=O)(=O)c1ccccc1` [Example 13], for which the pIC50 was 4.00 to 6.00. `O=C(O)c1cc2c(cc1F)N(S(=O)(=O)c1ccc(F)cc1)CCC2` [Example 14, 7-fluoro-1-((4-fluorophenyl)sulfonyl)-1,2,3,4-tetrahydroquinoline-6-carboxylic acid]: the pIC50 was 4.00 to 6.00. Next, `O=C(O)c1ccc(NS(=O)(=O)c2csc(-c3ccccc3)n2)cc1` [Example 15]: 6.00 to 6.30; `O=C(O)c1ccccc1NS(=O)(=O)c1cnc(-c2ccc(F)cc2)s1` [Example 16]: 4.00 to 6.00. With `O=C(O)c1cccc(NS(=O)(=O)c2cnc(-c3ccc(F)cc3)s2)c1` [Example 17], the pIC50 was under 4.00. With `COC(=O)c1ccc(NS(=O)(=O)c2cnc(-c3ccc(F)cc3)s2)cc1C` [Example 18] the figure was 4.00 to 6.00; with `Cc1cc(NS(=O)(=O)c2cnc(-c3ccc(F)cc3)s2)ccc1C(=O)O` [Example 19], 6.00 to 6.30; with `Cc1cc(C(=O)O)ccc1NS(=O)(=O)c1cnc(-c2ccc(F)cc2)s1` [Example 20], 4.00 to 6.00. Take `O=C(O)c1ccc(NS(=O)(=O)c2cnc(-c3ccc(F)cc3)s2)cc1F` [Example 21]: the negative logarithm of the IC50 (pIC50) is 6.00 to 6.30. On to `COc1cc(NS(=O)(=O)c2cnc(-c3ccc(F)cc3)s2)ccc1C(=O)O` [Example 22], for which the negative-log IC50 (pIC50) was 4.00 to 6.00. Consider `COc1cc(C(=O)O)ccc1NS(=O)(=O)c1cnc(-c2ccc(F)cc2)s1` [Example 23], for which the negative logarithm of the IC50 (pIC50) was over 7.00. With `O=S(=O)(Nc1ccccc1)c1cnc(-c2ccc(F)cc2)s1` [Example 24] the figure was under 4.00. For the compound `O=S(=O)(Nc1ccccc1)c1csc(-c2ccccc2)n1` [Example 25], the pIC50 was under 4.00.

Consider `O=C(O)c1ccc(NS(=O)(=O)c2cnc(-c3ccc(F)cc3)s2)cn1` [Example 26], for which the pIC50 is 4.00 to 6.00. Next, `O=C(O)Cc1ccc(NS(=O)(=O)c2cnc(-c3ccc(F)cc3)s2)cc1` [Example 27]: 4.00 to 6.00. With `O=C(O)c1ccc(NS(=O)(=O)c2cnc(-c3ccc(F)cc3)s2)c(F)c1` [Example 28] the figure was 6.30 to 7.00; with `O=C(O)c1ccc(CNS(=O)(=O)c2cnc(-c3ccc(F)cc3)s2)cc1` [Example 29], 4.00 to 6.00; with `O=C(O)Cc1ccc(CNS(=O)(=O)c2cnc(-c3ccc(F)cc3)s2)cc1` [Example 30], under 4.00. Next, `CC(C)(C)c1ccc(S(=O)(=O)NC(=O)c2ccc(NS(=O)(=O)c3cnc(-c4ccc(F)cc4)s3)cc2)cc1` [Example 31, N-((4-(tert-butyl)phenyl)sulfonyl)-4-((2-(4-fluorophenyl)thiazole)-5-sulfonamido)benzamide]: 4.00 to 6.00; `CN(C)S(=O)(=O)NC(=O)c1ccc(NS(=O)(=O)c2cnc(-c3ccc(F)cc3)s2)cc1` [Example 32]: 4.00 to 6.00. `O=C(O)c1ccc(NS(=O)(=O)c2cnc(-c3ccc(F)cc3)s2)nc1` [Example 33]: the pIC50 is 4.00 to 6.00. With `O=S(=O)(Nc1ccc(-c2nnn[nH]2)cc1)c1cnc(-c2ccc(F)cc2)s1` [Example 34] the figure was 4.00 to 6.00; with `Cn1nnnc1-c1ccc(NS(=O)(=O)c2cnc(-c3ccc(F)cc3)s2)cc1` [Example 35], 4.00 to 6.00; with `O=S(=O)(Nc1ccc(CO)cc1)c1cnc(-c2ccc(F)cc2)s1` [Example 36, 2-(4-fluorophenyl)-N-(4-(hydroxymethyl)phenyl)thiazole-5-sulfonamide], 4.00 to 6.00. Consider `CC(C)Oc1cc(C(=O)O)ccc1NS(=O)(=O)c1cnc(-c2ccc(F)cc2)s1` [Example 37], for which the pIC50 was 4.00 to 6.00. On to `CC(C)(C)c1ccc(S(=O)(=O)NC(=O)OCc2ccc(NS(=O)(=O)c3cnc(-c4ccc(F)cc4)s3)cc2)cc1` [Example 38, 4-((2-(4-fluorophenyl)thiazole)-5-sulfonamido)benzyl ((4-(tert-butyl)phenyl)sulfonyl)carbamate], for which the negative-log IC50 (pIC50) is 4.00 to 6.00. With `COc1cc(C(=O)O)c(F)cc1NS(=O)(=O)c1cnc(-c2ccc(F)cc2)s1` [Example 39] the figure was over 7.00; with `O=C(O)c1ccc(NS(=O)(=O)c2cnc(-c3ccc(F)cc3)s2)c(O)c1` [Example 40, 4-((2-(4-fluorophenyl)thiazole)-5-sulfonamido)-3-hydroxybenzoic acid], over 7.00. Next, `COc1ccc(NS(=O)(=O)c2cnc(-c3ccc(F)cc3)s2)cc1` [Example 42]: 4.00 to 6.00; `O=C(O)c1ccc(NS(=O)(=O)c2cnc(-c3ccc(F)cc3)s2)c(OC2CC2)c1` [Example 43]: 4.00 to 6.00. Next, `O=C(O)c1ccc(NS(=O)(=O)c2cnc(-c3ccc(F)cc3)s2)c(C2CC2)c1` [Example 44]: 4.00 to 6.00. With `O=C(O)c1ccc(NS(=O)(=O)c2cnc(-c3ccc(F)cc3)s2)c(C(F)(F)F)c1` [Example 45], the pIC50 was 4.00 to 6.00. Next, `O=C(O)c1cc(F)c(NS(=O)(=O)c2cnc(-c3ccc(F)cc3)s2)c(F)c1` [Example 46]: 6.30 to 7.00. For the compound `O=C(O)c1ccc(NS(=O)(=O)c2cnc(-c3ccc(F)cc3)s2)cc1-c1ccccc1` [Example 47], the pIC50 was 4.00 to 6.00. As to `O=C(O)c1ccc(NS(=O)(=O)c2cnc(-c3ccc(F)cc3)s2)c(OC(F)(F)F)c1` [Example 48], the pIC50 was 4.00 to 6.00.

For `O=C(O)c1ccc(NS(=O)(=O)c2cnc(-c3ccc(F)cc3)s2)c(OC(F)F)c1` [Example 49], the negative-log IC50 (pIC50) is 4.00 to 6.00. Turning to `O=C(O)c1ccc(NS(=O)(=O)c2cnc(-c3ccc(F)cc3)s2)c(F)c1F` [Example 50], the pIC50 was 6.30 to 7.00.

Consider `O=C(O)c1ccc(S(=O)(=O)Nc2ccc(-c3nccs3)cc2)cc1` [Example 51], for which the pIC50 was 4.00 to 6.00. For `O=C(O)c1ccc(NS(=O)(=O)c2cscn2)cc1` [Example 52], the pIC50 is 4.00 to 6.00.

For the compound `Cc1nc(S(=O)(=O)Nc2ccc(C(=O)O)cc2)cs1` [Example 53], the negative-log IC50 (pIC50) is 4.00 to 6.00. Turning to `Cc1cnn(-c2ccc(S(=O)(=O)Nc3ccc(C(=O)O)cc3)cc2F)c1` [Example 54], the pIC50 is 4.00 to 6.00.
